{"source": "patent US12090225B2", "about": "(Avalyn Pharma Inc., priority 2018, dated 2024)", "key": {"[1]": {"test": "Human inhaled dose projection vs Ofev 150 mg oral", "settings": "human projection"}, "[2]": {"test": "Therapeutic silica model: body and lung weights", "format": "in vivo, C57BL/6 mice", "settings": "oral 30 mg/kg BID and inhaled (IN) 0.021-[…] QD nintedanib HBr", "method": "Briefly, acclimated 20-22 g female C57BL/6 mice were administered silica on day 1 by the intratracheal route. On the tenth day, treatment was initiated with either saline or nintedanib. […] Sham and silica control groups received saline either IN or PO. Five animals were enrolled into sham groups, 10 animals enrolled into each PO dose groups, and 13 animals were enrolled into each IN dosing group. […] Body weights were collected throughout the study, with lung weights at termination. Flexivent was performed to determine elastance (lung function; Table 59). Left lungs were extracted, stained as assessed for parenchymal collagen (Table 60) and α-smooth muscle actin (αSMA; Table 61), while right lungs were assessed for interleukin-1β (IL-1β; Table 62). As expected, all mice administered silica lost weight from days 0 to 4. All silica administered mice began to recover from weight loss at around day 6 and continued recovery reaching their initial weight by day 10 (first therapeutic intervention). […] Neither oral or inhaled (IN) treatment or vehicles altered these characteristics."}, "[3]": {"test": "Plasma and lung pharmacokinetics of nintedanib esylate, oral vs intratracheal aerosol", "format": "in vivo, C57BL/6 mice", "settings": "for Lung Cmax / plasma AUC as fraction of the 100 mg/kg oral dose: mice"}, "[4]": {"test": "Solvent solubility screen", "format": "physicochemical", "settings": "thermodynamic from solid, read-out: Approximate Solubility", "method": "Between each addition, the mixture was checked for dissolution and where no dissolution was apparent, the mixture was heated to ca. 40° C. and checked again. Samples where the material dissolved, were left to evaporate. Any solids produced from evaporation samples were analyzed by XRPD in order to assess the polymorphic form.\nThe solvent systems used during the solvent solubility screen, together with the corresponding ICH Class, are detailed in Table 4."}, "[5]": {"test": "Therapeutic bleomycin model: dose levels and lung pharmacokinetic comparison", "format": "in vivo, Sprague Dawley rats", "settings": "rat"}, "[6]": {"test": "Aqueous solubility assessment of salts", "format": "physicochemical", "settings": "primary screen samples"}, "[7]": {"test": "Disproportionation/hydration studies (pH, XRPD pattern)", "format": "physicochemical", "settings": "for pH Pre-Agitation: listed as HBr salt", "excerpt": "No XRPD data could be compiled on the hydration or disproportionation of the salt due to the high solubility in water and acetone/water mixtures.\nThe salt only remained Pattern 1 at 0.3 aw. New patterns 6 and 7 are likely hydrated due to the high water activity conditions for production."}, "[8]": {"test": "Feasibility assessment of ready-to-use nintedanib HBr, HCl and esylate formulations", "format": "physicochemical", "settings": "NaCl at 30 mM or higher concentrations"}, "[9]": {"test": "HBr and HCl salts-filter compatibility study", "format": "physicochemical", "settings": "0.22 μm PTFE filter; 3% PG solution; glass vials, ambient room condition", "method": "HBr and HCl salts-filter compatibility study: this study was conducted to assess the compatibility of the HBr and the HCl salts with various membrane filters. […] The glass vials were stored at ambient room condition and visual appearance was periodically inspected."}, "[10]": {"test": "Therapeutic silica model: dose levels and lung pharmacokinetic comparison", "format": "in vivo, C57BL/6 mice", "settings": "Oral Gavage (PO) 30.0 mg/kg; mice", "method": "Briefly, acclimated 20-22 g female C57BL/6 mice were administered silica on day 1 by the intratracheal route. On the tenth day, treatment was initiated with either saline or nintedanib. […] Sham and silica control groups received saline either IN or PO. Five animals were enrolled into sham groups, 10 animals enrolled into each PO dose groups, and 13 animals were enrolled into each IN dosing group. […] All animals were euthanized on day 30d. Body weights were collected throughout the study, with lung weights at termination. Flexivent was performed to determine elastance (lung function; Table 59). Left lungs were extracted, stained as assessed for parenchymal collagen (Table 60) and α-smooth muscle actin (αSMA; Table 61), while right lungs were assessed for interleukin-1β (IL-1β; Table 62).\nIntranasal (IN) dose levels were selected by comparing lung pharmacokinetics following IN dosing to lung pharmacokinetics determined following 30 mg/kg oral gavage (PO)."}, "[11]": {"test": "Formulation development/optimization and long-term stability of nintedanib HBr and HCl formulations"}, "[12]": {"test": "Inhaled pharmacokinetics of nintedanib salt forms (intratracheal)", "format": "in vivo, C57BL/6 mice", "settings": "1 mg/kg (base equivalent) IT, mice; listed as nintedanib hydrobromide"}}, "data": [{"smiles": "COC(=O)c1ccc2c(c1)NC(=O)/C2=C(\\Nc1ccc(N(C)C(=O)CN2CCN(C)CC2)cc1)c1ccccc1", "note": "[Nintedanib, methyl (3Z)-3-[[4-[methyl-[2-(4-methylpiperazin-1-yl)acetyl]amino]anilino]-phenylmethylidene]-2-oxo-1H-indole-6-carboxylate]", "values": [{"measurement": "device loaded dose resulting in the same lung AUC as the 150 mg oral dose", "setting": "[1]", "value": 0.04, "unit": "mg"}, {"measurement": "device loaded dose resulting in the same plasma AUC as a 150 mg oral dose", "setting": "[1]", "value": 0.42, "unit": "mg"}, {"measurement": "lung weights compared to control mice", "setting": "[2]", "value": "Neither oral nor inhaled (IN) nintedanib significantly affected lung weights"}, {"measurement": "less IT nintedanib to achieve the same lung Cmax as oral delivery", "setting": "[3]; 0.5 mg/kg IT compared to 100 mg/kg oral", "value": "about 200 fold"}, {"measurement": "Lung Cmax", "setting": "[3]; 2.5 mg/kg IT", "value": 57.5, "unit": "mcg/gram"}, {"measurement": "plasma AUC as fraction of the 100 mg/kg oral dose", "setting": "[3]; 2.5 mg/kg inhaled (IT)", "value": "about 1/9"}, {"measurement": "plasma AUC as fraction of the 100 mg/kg oral dose", "setting": "[3]; 10 mg/kg inhaled (IT)", "value": "⅓"}, {"measurement": "Lung Cmax", "setting": "[3]; 100 mg/kg oral", "value": 12.1, "unit": "mcg/gram"}, {"measurement": "solubility", "setting": "[4]; 1-butanol, 40 °C, organic solvent or mixture", "value": "< 10000", "unit": "µg/mL"}, {"measurement": "solubility", "setting": "[4]; 1-propanol, 40 °C, organic solvent or mixture", "value": "< 10000", "unit": "µg/mL"}, {"measurement": "solubility", "setting": "[4]; 2-propanol, 40 °C, organic solvent or mixture", "value": "< 11000", "unit": "µg/mL"}, {"measurement": "solubility", "setting": "[4]; 40 °C, aqueous with cosolvent or surfactant or cyclodextrin, 40% Methanol: 60% Water (% v/v)", "value": "< 10000", "unit": "µg/mL"}, {"measurement": "solubility", "setting": "[4]; 50% 2-propanol: 50% water (% v/v), 40 °C, aqueous with cosolvent or surfactant or cyclodextrin", "value": "< 10000", "unit": "µg/mL"}, {"measurement": "solubility", "setting": "[4]; N,N′-dimethylacetamide, organic solvent or mixture", "value": 26000, "unit": "µg/mL"}, {"measurement": "solubility", "setting": "[4]; THF, 40 °C, organic solvent or mixture", "value": "< 10000", "unit": "µg/mL"}, {"measurement": "solubility", "setting": "[4]; acetone, 40 °C, organic solvent or mixture", "value": "< 10000", "unit": "µg/mL"}, {"measurement": "solubility", "setting": "[4]; acetonitrile, 40 °C, organic solvent or mixture", "value": "< 10000", "unit": "µg/mL"}, {"measurement": "solubility", "setting": "[4]; anisole, 40 °C, organic solvent or mixture", "value": "< 10000", "unit": "µg/mL"}, {"measurement": "solubility", "setting": "[4]; dichloromethane, organic solvent or mixture", "value": 17000, "unit": "µg/mL"}, {"measurement": "solubility", "setting": "[4]; dimethylsulfoxide, 40 °C, organic solvent or mixture", "value": "< 10000", "unit": "µg/mL"}, {"measurement": "solubility", "setting": "[4]; ethanol, 40 °C, organic solvent or mixture", "value": "< 10000", "unit": "µg/mL"}, {"measurement": "solubility", "setting": "[4]; ethyl acetate, 40 °C, organic solvent or mixture", "value": "< 10000", "unit": "µg/mL"}, {"measurement": "solubility", "setting": "[4]; ethyl ether, 40 °C, organic solvent or mixture", "value": "< 10000", "unit": "µg/mL"}, {"measurement": "solubility", "setting": "[4]; heptane, 40 °C, organic solvent or mixture", "value": "< 10000", "unit": "µg/mL"}, {"measurement": "solubility", "setting": "[4]; isopropyl acetate, 40 °C, organic solvent or mixture", "value": "< 10000", "unit": "µg/mL"}, {"measurement": "solubility", "setting": "[4]; methanol, 40 °C, organic solvent or mixture", "value": "< 11000", "unit": "µg/mL"}, {"measurement": "solubility", "setting": "[4]; methylethyl ketone, 40 °C, organic solvent or mixture", "value": "< 10000", "unit": "µg/mL"}, {"measurement": "solubility", "setting": "[4]; methylisobutyl ketone, 40 °C, organic solvent or mixture", "value": "< 10000", "unit": "µg/mL"}, {"measurement": "solubility", "setting": "[4]; n-hexane, 40 °C, organic solvent or mixture", "value": "< 10000", "unit": "µg/mL"}, {"measurement": "solubility", "setting": "[4]; tert-butylmethyl ether, 40 °C, organic solvent or mixture", "value": "< 11000", "unit": "µg/mL"}, {"measurement": "solubility", "setting": "[4]; toluene, 40 °C, organic solvent or mixture", "value": "< 10000", "unit": "µg/mL"}, {"measurement": "solubility", "setting": "[4]; water, 40 °C, water", "value": "< 10000", "unit": "µg/mL"}]}, {"smiles": "COC(=O)c1ccc2c(c1)NC(=O)/C2=C(\\Nc1ccc(N(C)C(=O)CN2CCN(C)CC2)cc1)c1ccccc1", "note": "[Nintedanib HBr]", "values": [{"measurement": "Lung AUC", "setting": "[5]; Oropharyngeal (OP) 0.05 mg/kg", "value": 1.6, "unit": "mg·h/kg"}, {"measurement": "Lung Cmax", "setting": "[5]; Oropharyngeal (OP) 0.05 mg/kg", "value": 1.4, "unit": "µg/g"}, {"measurement": "Lung AUC", "setting": "[5]; Oropharyngeal (OP) 0.25 mg/kg", "value": 7.8, "unit": "mg·h/kg"}, {"measurement": "Lung Cmax", "setting": "[5]; Oropharyngeal (OP) 0.25 mg/kg", "value": 7.0, "unit": "µg/g"}, {"measurement": "Lung AUC", "setting": "[5]; Oropharyngeal (OP) 0.375 mg/kg", "value": 11.6, "unit": "mg·h/kg"}, {"measurement": "Lung Cmax", "setting": "[5]; Oropharyngeal (OP) 0.375 mg/kg", "value": 10.5, "unit": "µg/g"}, {"measurement": "pH (aqueous solubility measurement)", "setting": "[6]", "value": 3.95}, {"measurement": "solubility", "setting": "[6]; water, thermodynamic from solid, read-out: Solubility (aqueous)", "value": "~5000", "unit": "µg/mL"}, {"measurement": "Pattern (disproportionation/hydration)", "setting": "[7]; Water Activity 0.3", "value": 1}, {"measurement": "pH Pre-Agitation", "setting": "[7]; Water Activity 0.3 (acetone/water)", "value": 4.84}, {"measurement": "Pattern (disproportionation/hydration)", "setting": "[7]; Water Activity 0.6", "value": 4}, {"measurement": "pH Pre-Agitation", "setting": "[7]; Water Activity 0.6 (acetone/water)", "value": 5.38}, {"measurement": "Pattern (disproportionation/hydration)", "setting": "[7]; Water Activity 0.9", "value": "New pattern (Pattern 6)"}, {"measurement": "pH Pre-Agitation", "setting": "[7]; Water Activity 0.9 (acetone/water)", "value": 5.56}, {"measurement": "Pattern (disproportionation/hydration)", "setting": "[7]; Water Activity 1", "value": "New pattern (Pattern 7)"}, {"measurement": "pH Pre-Agitation", "setting": "[7]; Water Activity 1.0 (water)", "value": 2.27}, {"measurement": "compatibility with NaCl", "setting": "[8]", "value": "Neither Nintedanib HBr nor Nintedanib HCl is compatible"}, {"measurement": "visual appearance after filtration", "setting": "[9]", "value": "no change in appearance through 1 month"}, {"measurement": "Lung AUC", "setting": "[10]", "value": 7.4, "unit": "mg·h/kg"}, {"measurement": "Lung Cmax", "setting": "[10]", "value": 1.1, "unit": "µg/g"}, {"measurement": "compatibility with citric acid, fumaric acid", "setting": "[11]", "value": "incompatible"}, {"measurement": "upper concentration limit (no re-crystallization)", "setting": "[11]", "value": 1.38, "unit": "mg/mL"}, {"measurement": "lung half-life", "setting": "[12]", "value": "about 4 minutes"}]}]}
